Results on three molecules are retold here after patent publication US20030091533A1, “Regulation of mononuclear phagocyte stimulation” (priority 2001, published 2003).

Holding throughout (format): cell-based, human
The test system of assay [1] is LPS-stimulated AM. The experiment in a line: Intracellular oxidative burst, DCFH oxidation assay, AM. Conditions: for oxidative burst in LPS-stimulated AM with IFN-γ: preincubated 24 hour with cytokine 20 ng/ml in the presence of IFN-γ 200 U/ml, LPS 1 μg/ml 20 hour; for LPS-stimulated oxidative burst in AM: preincubation 24 hour with cytokine 20 ng/ml, then LPS 1 μg/ml 20 hour, without IFN-γ. The method, then:
Intracellular oxidative capacity was assessed essentially as described by Bass et al., J. Immunol., 130:1910-1917 (1983) (incorporated herein by reference) as described infra.
Cells (0.2×10^6) were preincubated for 24 hour with IL-9 or IL-4 (20 ng/ml) in the presence of IFN-γ (200 U/ml) before stimulation for 20 hour with LPS (1 μg/ml). The intracellular oxidative capacity was measured through the DCFH oxidation assay as describe herein. FIG. 3 depicts the effect of IFN-γ on the inhibition mediated by IL-9 and IL-4 on the oxidative burst in LPS-stimulated PBM (A) and AM (B).
Table 1. Specific blockade of the IL-9 inhibitory effect on oxidative burst in LPS-15 stimulated PBM and AM by anti-hIL-9R mAb. Cells (0.2×10^6) were preincubated with neutralizing mAb against hIL-9R (AH9R7, 10 μg/ml), or with control mIgG2b (10 μg/ml), 1 hour before incubation with IL-9 (20 ng/ml) for 24 hour without removing mAb, and stimulated by LPS (1 μg/ml) for 20 h. Intracellular oxidative capacity was evaluated by the DCFH oxidation assay. Data are means±SEM obtained from three experiments, triplicate conditions being performed in each experiment. *P<0.001 compared with cells preincubated with IL-9 (with or without control mIgG2b).
Intracellular oxidative capacity was assessed as described by Bass et al., (Bass et al., J. Immunol. 130:1910-1917 (1983)). Briefly, the PBM and AM samples were distributed in 96-well plates with flat bottoms (Falcon) to provide 0.2×10^6cells/well. The cells were preincubated for 24 hour at 37° C., 5% CO2 with cytokines (200 u/ml for IFN-y, 20 ng/ml for IL-9 and 20 ng/ml; for IL-4) in cRPMI before being stimulated for 20 hours with LPS (1 μg/ml) without removing the cytokines. At the end of incubation with cytokines and/or LPS, cells were loaded for 15 min with 15 μM DCFH-DA in cRPMI which, after passive penetration into cells, is hydrolyzed into nonfluorescent polar DCFH and trapped inside the cells. DCFH is then oxidized into highly fluorescent DCF according to the intracellular amount of hydrogen peroxide (H2O2) produced by the respiratory burst. After three washings with phosphate-buffered saline (PBS, pH 7.4), cells were lysed in 0.1% v/v Triton X100 (Sigma) in PBS, and fluorescence was quantified in a computerized microplate spectrofluorimeter (Packard Instruments, Downers Grove, Ill., USA) at 485 nm excitation/530 nm emission wavelengths. DCF concentrations were deduced from a standard curve of known concentrations of fluorescent DCF (ranging from 0.08 to 10 μM in lysis buffer) Results were corrected for total protein concentration determined in cell lysates by the bicinchoninic acid-based method (Pierce, Rockford, Ill., USA), and were expressed as nmoles DCF/mg cell protein.

The next assay has as its system LPS-stimulated PBM. Kind of assay: IL-8 release by ELISA, PBM. Particulars: for effect on IL-8 release by LPS-stimulated PBM: preincubated 24 hour, LPS 20 hour. On the procedure:
(§1) PBM and AM obtained as described infra (1×10^6 PBM, 0.5×10^6 AM) were preincubated for 24 hour with cytokines, IL-4, IL-9 (20 ng/ml) and IFN-γ (200 U/ml) before the stimulation by LPS (1 μg/ml) for 20 h. Supernatants were harvested and frozen at −20° C. until cytokine titration. TNF-α release was determined in supernatants by a cytotoxic bioassay using WEHI 164 clone 13 target cells (Espevik and Nissen-Meyer, J. Immunol. Methods, 95:99-105 (1986) (incorporated herein by reference)), while IL-8 was quantitated in the same supernatants by ELISA. FIG. 5 depicts the effects of IL-9, IL-4, and IFN-γ on the release of TNFα (A) and IL-8 (B) by LPS-stimulated PBM and AM. Data are means±SEM (n=3). *P<0.001 compared with unstimulated cells; **P<0.05 compared with cells preincubated with medium.
Cells (1×10^6 PBM or 0.5×10^6 AM/well) were distributed in 24-well plates (Falcon), preincubated in cRPMI for 24 hours at 37° C., 5% CO2 with cytokines (IL-9, IL-4 (20 ng/ml) and IFN-γ (200 U/ml)) and stimulated for 20 hours with 1 μg/ml LPS without removing cytokines. Supernatants were harvested and frozen at −20° C. until cytokine titration. Release of TNF-α was quantified by a cytotoxicity bioassay using WEHI 164 cells clone 13, as previously described (Espevik and Nissen-Meyer, J. Immunol. Methods, 95:99-105 (1986) incorporated herein by reference), using rhTNF-α from Boehringer as a standard. IL-8, IL-10 and TGF-β1 concentrations were determined by ELISA. A kit from CLB (Amsterdam, The Netherlands) was used for IL-10 quantitation, following the manufacturer's protocol. A kit from Biosource allowed to determine TGF-β1 after the release from its latent complexes by a treatment of supernatants with ethanol acid (‘acid-treated supernatants’); TGF-P 1 was also assessed in crude supernatants (‘untreated supernatants’). […] The reaction was then developed in 0.03% v/v H2O2 substrate and 0.42 mM 3,3′,5,5′-tetramethylbenzidine as chromogen in 100 mM sodium acetate/citric acid buffer (pH 4.9), stopped with 2 M H2SO4, and read in a plate spectrometer at 450 nm. […]

Assay [2] concerns LPS-stimulated AM. The experiment in a line: IL-8 release by ELISA, AM. Particulars: preincubated 24 hour, LPS 20 hour. On the procedure:
as §1, with “Data are means±SEM (n=3). *P<0.001 compared with unstimulated cells; **P<0.05 compared with cells preincubated with medium.” left out
Cells (1×10^6 PBM or 0.5×10^6 AM/well) were distributed in 24-well plates (Falcon), preincubated in cRPMI for 24 hours at 37° C., 5% CO2 with cytokines (IL-9, IL-4 (20 ng/ml) and IFN-γ (200 U/ml)) and stimulated for 20 hours with 1 μg/ml LPS without removing cytokines. […] Release of TNF-α was quantified by a cytotoxicity bioassay using WEHI 164 cells clone 13, as previously described (Espevik and Nissen-Meyer, J. Immunol. Methods, 95:99-105 (1986) incorporated herein by reference), using rhTNF-α from Boehringer as a standard. IL-8, IL-10 and TGF-β1 concentrations were determined by ELISA. A kit from CLB (Amsterdam, The Netherlands) was used for IL-10 quantitation, following the manufacturer's protocol. […]
(In general: In an ELISA, binding on a coated surface is turned into a signal by an enzyme label.)

“And” between values parts separate entries of the source, which are not always exact repeats. Equal values may be shown once.

In the case of “IL-4: Th2 cytokine interleukin-4 used as comparator, 20 ng/ml”, in the assay with LPS-stimulated AM [1], the “oxidative burst in LPS-stimulated AM with IFN-γ” value turned out to be 13.8±1.3 nmoles DCF/mg protein and the “LPS-stimulated oxidative burst in AM” value turned out to be 6.1±0.4 nmoles DCF/mg protein. In addition, in the assay with LPS-stimulated PBM (preincubated 24 hour with cytokine or medium, LPS 1 μg/ml 20 hour, without LPS 10.0±2.4), the “IL-8 release by LPS-stimulated PBM” value was determined as 20.1 ± 2.1 ng/mL.
For “IL-9: Human IL-9 purified from SF9 insect cell cultures infected with recombinant baculovirus”, in the assay on LPS-stimulated AM [1] (Table 1, AM, mAb 10 μg/ml 1 hour before IL-9 20 ng/ml 24 hour, LPS 1 μg/ml 20 h, means±SEM, medium 5.8 ± 0.6), the “Oxidative burst (nmoles DCF/mg protein)” value came out at 6.5 ± 0.5 nmoles DCF/mg protein. Also, in the assay on LPS-stimulated AM [1], the “oxidative burst in LPS-stimulated AM with IFN-γ” value worked out at 6.6±1.2 nmoles DCF/mg protein; the “LPS-stimulated oxidative burst in AM” value is 6.5±0.5 nmoles DCF/mg protein and 6.5±0.6 nmoles DCF/mg protein. For the same molecule, the “effect on IL-8 release by LPS-stimulated PBM” value with LPS-stimulated PBM was “no significant modulation”. The “effect on IL-8 release by LPS-stimulated AM” value in the assay on LPS-stimulated AM [2] is recorded as “no significant modulation”.

B1: IFN-γ: Interferon gamma, primes mononuclear phagocytes, 200 U/ml (protein, UniProt P01579 24-161, looked up)
Interferon gamma: QDPYVKEAENLKKYFNAGHSDVADNGTLFLGILKNWKEESDRKIMQSQIVSFYFKLFKNFKDDQSIQKSVETIKEDMNVKFFNSNKKKRDDFEKLTNYSVTDLNVQRKAIHELIQVMAELSPAAKTGKRKRSQMLFRG
Regarding B1, in the assay with LPS-stimulated AM [1] (preincubation 24 hour, LPS 20 hour), the “effect on LPS-stimulated oxidative burst in AM” value is on record as “slightly increased”. In the assay with LPS-stimulated PBM, the “effect on IL-8 release by LPS-stimulated PBM” value was “no significant modulation”. Besides, the “effect on IL-8 release by LPS-stimulated AM” value with LPS-stimulated AM [2] is on record as “no significant modulation”.
